Where two headings read alike, the source gives them in different places.
How the values were obtained:
Format in all cases: in vivo
[1] = test system: Cabbage Looper (Trichoplusia ni, TRIPNI); assay: Bioassay on Cabbage Looper (CL), 128-well diet tray assay; settings: Trichoplusia ni
Method in brief: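 Test molecule is dissolved in 90:10 acetone-water and applied at 50 μg/cm^2 onto artificial diet, then dried. One to five second-instar larvae go into each of eight wells. Trays, sealed but vented, stay at 25° C., 14:10 light-dark, five to seven days, after which mortality is averaged.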

[2] = test system: Beet Armyworm (Spodoptera exigua, LAPHEG); assay: Bioassay on Beet Armyworm (BAW), 128-well diet tray assay
Method in brief: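 Artificial diet surface-treated with 50 μg/cm^2 test molecule in 90:10 acetone-water, dried, then infested with one to five second instar larvae per well. Held covered and vented at 25° C., 14:10 light-dark for five to seven days; percent mortality recorded per well and averaged over eight wells.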

[3] = test system: Green Peach Aphid (Myzus persicae, MYZUPE); assay: Bioassay on Green Peach Aphid (GPA), foliar spray on infested cabbage seedlings; settings: 72 h
Procedure: Certain molecules disclosed in this document were tested against GPA using procedures described in the following example. In the reporting of the results, the “GPA & YFM Rating Table” was used (See Table Section).
Cabbage seedlings grown in 3-inch pots, with 2-3 small (3-5 cm) true leaves, were used as test substrate. The seedlings were infested with 20-50 GPA (wingless adult and nymph stages) one day prior to chemical application. Four pots with individual seedlings were used for each treatment. Test molecules (2 mg) were dissolved in 2 mL of acetone/methanol (1:1) solvent, forming stock solutions of 1000 ppm test molecule. The stock solutions were diluted 5× with 0.025% Tween 20 in water to obtain the solution at 200 ppm test molecule. A hand-held aspirator-type sprayer was used for spraying a solution to both sides of […] leaves until runoff. Reference plants (solvent check) were sprayed with the diluent only containing 20% by volume of acetone/methanol (1:1) solvent. Treated plants were held in a holding room for three days at approximately 25° C. and ambient relative humidity (RH) prior to grading. Evaluation was conducted by counting the number of live aphids per plant under a microscope. Percent control was measured using Abbott's correction formula (W. S. Abbott, “A Method of Computing the Effectiveness of an Insecticide” 3. Econ. Entomol. 18 (1925), pp. 265-267) as follows. Corrected % Control=100*(X−Y)/X where X=No. of live aphids on solvent check plants and Y=No. of live aphids on treated plants. The results are indicated in the table entitled “Table ABC: Biological Results” (See Table Section).

[4] = test system: Yellow Fever Mosquito (Aedes aegypti, AEDSAE); assay: Bioassay on Yellow Fever Mosquito (YFM), 96-well plate larval assay; settings: Yellow Fever Mosquito, 96-well plate larval assay
Method in brief: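 Aedes aegypti larvae (about 1 day old) in liver-powder water were added to plates dispensed from DMSO master plates (4000 ppm stock) diluted with 90:10 water/acetone; six replicate plates per master. Lidded plates were held at room temperature for 3 days, then each well was scored for mortality.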

[5] = Species CL (Cabbage Looper), read-out: CL (Biological Results, rating)
[6] = Species BAW (Beet Armyworm), read-out: BAW (Biological Results, rating)
[7] = foliar, Species GPA (Green Peach Aphid), read-out: GPA (Biological Results, rating)
[8] = Cabbage Looper, 128-well diet tray assay, read-out: CL rating
[9] = Beet Armyworm, 128-well diet tray assay, read-out: BAW rating

O=C(Nc1ccc(Cl)cc1)c1cc(NC(=O)[C@H]2[C@H](c3cc(Cl)cc(Cl)c3)C2(Cl)Cl)ccc1Cl (relative stereo) [F7, trans-2-Chloro-N-(4-chlorophenyl)-5-(2,2-dichloro-3-(3,5-dichlorophenyl)cyclopropane-1-carboxamido)benzamide]
pest or weed control at 50 µg/cm2 [1, 5]: 50 to 100%
pest or weed control at 50 µg/cm2 [2, 6]: 50 to 100%
pest or weed control at 200 µg/mL [3, 7]: 0 to 80%

O=C(Nc1ccc(F)cc1Cl)c1cc(NC(=O)[C@H]2[C@H](c3cc(Cl)cc(Cl)c3)C2(Cl)Cl)ccc1Cl (relative stereo) [F8, trans-2-Chloro-N-(2-chloro-4-fluorophenyl)-5-(2,2-dichloro-3-(3,5-dichlorophenyl)cyclopropane-1-carboxamido)benzamide]
pest or weed control at 50 µg/cm2 [1, 5]: 50 to 100%
pest or weed control at 50 µg/cm2 [2, 6]: 50 to 100%
pest or weed control at 200 µg/mL [3, 7]: 80 to 100%

O=C(Nc1ccc(F)cc1)c1cc(NC(=O)[C@H]2[C@H](c3cc(Cl)cc(Cl)c3)C2(Cl)Cl)ccc1Br (relative stereo) [F11, trans-2-Bromo-5-(2,2-dichloro-3-(3,5-dichlorophenyl)cyclopropane-1-carboxamido)-N-(4-fluorophenyl)benzamide]
pest or weed control at 50 µg/cm2 [1, 5]: 50 to 100%
pest or weed control at 50 µg/cm2 [2, 6]: 50 to 100%
pest or weed control at 200 µg/mL [3, 7]: 0 to 80%

CN(C(=O)c1cc(NC(=O)[C@H]2[C@H](c3cc(Cl)cc(Cl)c3)C2(Cl)Cl)ccc1F)c1ccc(F)cc1 (relative stereo) [F45, trans-5-(2,2-Dichloro-3-(3,5-dichlorophenyl)cyclopropane-1-carboxamido)-2-fluoro-N-(4-fluorophenyl)-N-methylbenzamide]
pest or weed control at 50 µg/cm2 [1, 5]: 50 to 100%
pest or weed control at 50 µg/cm2 [2, 6]: 50 to 100%
pest or weed control at 200 µg/mL [3, 7]: 0 to 80%

O=C(Nc1ccc(F)cc1)c1cc(NC(=O)[C@H]2[C@H](c3cc(Cl)cc(Cl)c3)C2(Cl)Cl)c(F)cc1F (relative stereo) [F49, trans-5-(2,2-Dichloro-3-(3,5-dichlorophenyl)cyclopropane-1-carboxamido)-2,4-difluoro-N-(4-fluorophenyl)benzamide]
pest or weed control at 50 µg/cm2 [1, 5]: 50 to 100%
pest or weed control at 50 µg/cm2 [2, 6]: 50 to 100%
pest or weed control at 200 µg/mL [3, 7]: 0 to 80%

O=C(Nc1ccc(F)cc1)c1cc(NC(=O)[C@H]2[C@H](c3cc(Cl)c(F)c(Cl)c3)C2(Cl)Cl)ccc1Cl (relative stereo) [F96, trans-2-Chloro-5-(2,2-dichloro-3-(3,5-dichloro-4-fluorophenyl)cyclopropane-1-carboxamido)-N-(4-fluorophenyl)benzamide]
pest or weed control at 50 µg/cm2 [1, 5]: 50 to 100%
pest or weed control at 50 µg/cm2 [2, 6]: 50 to 100%
pest or weed control at 200 µg/mL [3, 7]: 80 to 100%

Cc1cc(Cl)cc([C@H]2[C@H](C(=O)Nc3ccc(Cl)c(C(=O)N(C)c4ccc(F)cc4)c3)C2(Cl)Cl)c1 (relative stereo) [F117, trans-2-Chloro-5-(2,2-dichloro-3-(3-chloro-5-methylphenyl)cyclopropane-1-carboxamido)-N-(4-fluorophenyl)-N-methylbenzamide]
pest or weed control at 50 µg/cm2 [1, 5]: 50 to 100%
pest or weed control at 50 µg/cm2 [2, 6]: 50 to 100%
pest or weed control at 200 µg/mL [3, 7]: 0 to 80%

Cc1cc([C@H]2[C@H](C(=O)Nc3ccc(Cl)c(C(=O)N(C)c4ccc(F)cc4)c3)C2(Cl)Cl)cc(Cl)c1Cl (relative stereo) [F124, trans-2-Chloro-5-(2,2-dichloro-3-(3,4-dichloro-5-methylphenyl)cyclopropane-1-carboxamido)-N-(4-fluorophenyl)-N-methylbenzamide]
pest or weed control at 50 µg/cm2 [1, 5]: 50 to 100%
pest or weed control at 50 µg/cm2 [2, 6]: 50 to 100%
pest or weed control at 200 µg/mL [3, 7]: 0 to 80%

O=C(Nc1ccc(F)cc1)c1cc(NC(=O)[C@H]2[C@H](c3cc(Cl)cc(Cl)c3)C2(Cl)Cl)ccn1 (relative stereo) [F126, trans-4-(2,2-dichloro-3-(3,5-dichlorophenyl)cyclopropane-1-carboxamido)-N-(4-fluorophenyl)picolinamide]
pest or weed control at 50 µg/cm2 [1, 5]: 50 to 100%
pest or weed control at 50 µg/cm2 [2, 6]: 50 to 100%
pest or weed control at 200 µg/mL [3, 7]: 0 to 80%

O=C(Nc1ccc(F)cc1)c1cccc(NC(=O)[C@H]2[C@H](c3cc(Cl)cc(Cl)c3)C2(Cl)Cl)c1Cl (relative stereo) [F127, trans-2-Chloro-3-(2,2-dichloro-3-(3,5-dichlorophenyl)cyclopropane-1-carboxamido)-N-(4-fluorophenyl)benzamide]
pest or weed control at 50 µg/cm2 [1, 5]: 50 to 100%
pest or weed control at 50 µg/cm2 [2, 6]: 50 to 100%
pest or weed control at 200 µg/mL [3, 7]: 0 to 80%

CC(C)(C)OC(=O)Nc1cc(C(F)(F)F)cc(NC(=O)c2cc(NC(=O)[C@H]3[C@H](c4cc(Cl)cc(Cl)c4)C3(Cl)Cl)ccc2Cl)n1 (relative stereo) [F507, tert-Butyl (6-(2-chloro-5-(trans-2,2-dichloro-3-(3,5-dichlorophenyl)cyclopropane-1-carboxamido)benzamido)-4-(trifluoromethyl)pyridin-2-yl)carbamate]
pest or weed control at 200 µg/mL ([3]; Green Peach Aphid, foliar spray on cabbage seedlings, read-out: GPA rating): 0 to 80%

O=C(Nc1ccc(F)c(Cl)c1)c1cc(NC(=O)C2C(c3cc(Cl)cc(Cl)c3)C2(Cl)Cl)ccc1Cl (stereo not drawn) [PF122, 2-Chloro-N-(3-chloro-4-fluorophenyl)-5-(trans)-2,2-dichloro-3-(3,5-dichlorophenyl)cyclopropane-1-carboxamido)benzamide]
pest or weed control at 50 µg/cm2 [1, 8]: 50 to 100%
pest or weed control at 50 µg/cm2 [2, 9]: 50 to 100%
YFM rating [4]: B (More than 0-Less than 80)

O=C(Nc1ccc(Cl)c(F)c1)c1cc(NC(=O)C2C(c3cc(Cl)cc(Cl)c3)C2(Cl)Cl)ccc1Cl (stereo not drawn) [PF123, 2-Chloro-N-(4-chloro-3-fluorophenyl)-5-(trans)-2,2-dichloro-3-(3,5-dichlorophenyl)cyclopropane-1-carboxamido)benzamide]
pest or weed control at 50 µg/cm2 [1, 8]: 50 to 100%
pest or weed control at 50 µg/cm2 [2, 9]: 50 to 100%
YFM rating [4]: A (80-100)

C#Cc1cccc(NC(=O)c2cc(NC(=O)C3C(c4cc(Cl)cc(Cl)c4)C3(Cl)Cl)ccc2Cl)c1 (stereo not drawn) [PF124, 2-Chloro-5-(trans)-2,2-dichloro-3-(3,5-dichlorophenyl)cyclopropane-1-carboxamido)-N-(3-ethynylphenyl)benzamide]
pest or weed control at 50 µg/cm2 [1, 8]: 50 to 100%
pest or weed control at 50 µg/cm2 [2, 9]: 50 to 100%
YFM rating [4]: A (80-100)

Cc1ccc(NC(=O)c2cc(NC(=O)C3C(c4cc(Cl)cc(Cl)c4)C3(Cl)Cl)ccc2Cl)cc1Cl (stereo not drawn) [PF125, 2-Chloro-N-(3-chloro-4-methylphenyl)-5-(trans)-2,2-dichloro-3-(3,5-dichlorophenyl)cyclopropane-1-carboxamido)benzamide]
pest or weed control at 50 µg/cm2 [1, 8]: 50 to 100%
pest or weed control at 50 µg/cm2 [2, 9]: 50 to 100%
YFM rating [4]: A (80-100)

O=C(Nc1ccc2cc[nH]c2c1)c1cc(NC(=O)C2C(c3cc(Cl)cc(Cl)c3)C2(Cl)Cl)ccc1Cl (stereo not drawn) [PF126, 2-Chloro-5-(trans)-2,2-dichloro-3-(3,5-dichlorophenyl)cyclopropane-1-carboxamido)-N-(1H-indol-6-yl)benzamide]
pest or weed control at 50 µg/cm2 [1, 8]: 50 to 100%
pest or weed control at 50 µg/cm2 [2, 9]: 50 to 100%
YFM rating [4]: A (80-100)

O=C(Nc1ccc(Cl)c(Cl)c1F)c1cc(NC(=O)C2C(c3cc(Cl)cc(Cl)c3)C2(Cl)Cl)ccc1Cl (stereo not drawn) [PF127, 2-Chloro-N-(3,4-dichloro-2-fluorophenyl)-5-(trans)-2,2-dichloro-3-(3,5-dichlorophenyl)cyclopropane-1-carboxamido)benzamide]
pest or weed control at 50 µg/cm2 [1, 8]: 50 to 100%
pest or weed control at 50 µg/cm2 [2, 9]: 50 to 100%
YFM rating [4]: A (80-100)

O=C(Nc1nnc(Br)s1)c1cc(NC(=O)C2C(c3cc(Cl)cc(Cl)c3)C2(Cl)Cl)ccc1Cl (stereo not drawn) [PF133, trans-N-(5-bromo-1,3,4-thiadiazol-2-yl-2-chloro-5-(2,2-dichloro-3-(3,5-dichlorophenyl)cyclopropane-1-carboxamido)benzamide]
pest or weed control at 50 µg/cm2 [1, 8]: 50 to 100%
pest or weed control at 50 µg/cm2 [2, 9]: 50 to 100%
YFM rating [4]: A (80-100)

N#Cc1cc(Cl)cc(C2C(C(=O)Nc3ccc(Cl)c(C(=O)Nc4ccc(F)cc4)c3)C2(Cl)Cl)c1 (stereo not drawn) [PF155, 2-Chloro-5-(trans)-2,2-dichloro-3-(3-chloro-5-cyanophenyl)cyclopropane-1-carboxamido)-N-(4-fluorophenyl)benzamide]
pest or weed control at 50 µg/cm2 [1, 8]: 50 to 100%
pest or weed control at 50 µg/cm2 [2, 9]: 50 to 100%
YFM rating [4]: B (More than 0-Less than 80)

— patent US10219516B2, “Molecules having pesticidal utility, and intermediates, compositions, and processes, related thereto” (priority 2015, dated 2019)
